Reference: ChEMBL document CHEMBL3808373 (Bioorg Med Chem Lett, 2016)
Blank lines part the entries; values can stand above or below the molecule they belong to. Activity calls are given as the source filed them. The calls are words filed in the database; no cut-off is given here.

Legend:
[1] = Oral bioavailability in rat; format: ADME, organism-based; settings: in vivo
[2] = Terminal half life in rabbit; format: ADME, organism-based, Oryctolagus cuniculus; settings: in vivo, read-out: beta t1/2 (converted)
[3] = Plasma protein binding in rat; format: ADME, cell-free; settings: read-out: PPB (converted)
[4] = Clearance in rabbit; format: ADME, organism-based, Oryctolagus cuniculus; settings: in vivo
[5] = molecular target: T1, Sodium channel protein type 5 subunit alpha (Homo sapiens, UniProt Q14524); experiment: (§1) Inhibition of 0.1 Hz stimulated human Nav1.5alpha expressed in HEK293 cells assessed as inhibition of late sodium current at 1 uM with 3 compound additions for 7 to 8 mins at holding potential -120 mV in presence of late sodium current activator tefluthrin/ATX2 measured immediately after third compound addition by PatchXpress method relative to control; format: cell-based
T1 sequence (Q14524 whole entry): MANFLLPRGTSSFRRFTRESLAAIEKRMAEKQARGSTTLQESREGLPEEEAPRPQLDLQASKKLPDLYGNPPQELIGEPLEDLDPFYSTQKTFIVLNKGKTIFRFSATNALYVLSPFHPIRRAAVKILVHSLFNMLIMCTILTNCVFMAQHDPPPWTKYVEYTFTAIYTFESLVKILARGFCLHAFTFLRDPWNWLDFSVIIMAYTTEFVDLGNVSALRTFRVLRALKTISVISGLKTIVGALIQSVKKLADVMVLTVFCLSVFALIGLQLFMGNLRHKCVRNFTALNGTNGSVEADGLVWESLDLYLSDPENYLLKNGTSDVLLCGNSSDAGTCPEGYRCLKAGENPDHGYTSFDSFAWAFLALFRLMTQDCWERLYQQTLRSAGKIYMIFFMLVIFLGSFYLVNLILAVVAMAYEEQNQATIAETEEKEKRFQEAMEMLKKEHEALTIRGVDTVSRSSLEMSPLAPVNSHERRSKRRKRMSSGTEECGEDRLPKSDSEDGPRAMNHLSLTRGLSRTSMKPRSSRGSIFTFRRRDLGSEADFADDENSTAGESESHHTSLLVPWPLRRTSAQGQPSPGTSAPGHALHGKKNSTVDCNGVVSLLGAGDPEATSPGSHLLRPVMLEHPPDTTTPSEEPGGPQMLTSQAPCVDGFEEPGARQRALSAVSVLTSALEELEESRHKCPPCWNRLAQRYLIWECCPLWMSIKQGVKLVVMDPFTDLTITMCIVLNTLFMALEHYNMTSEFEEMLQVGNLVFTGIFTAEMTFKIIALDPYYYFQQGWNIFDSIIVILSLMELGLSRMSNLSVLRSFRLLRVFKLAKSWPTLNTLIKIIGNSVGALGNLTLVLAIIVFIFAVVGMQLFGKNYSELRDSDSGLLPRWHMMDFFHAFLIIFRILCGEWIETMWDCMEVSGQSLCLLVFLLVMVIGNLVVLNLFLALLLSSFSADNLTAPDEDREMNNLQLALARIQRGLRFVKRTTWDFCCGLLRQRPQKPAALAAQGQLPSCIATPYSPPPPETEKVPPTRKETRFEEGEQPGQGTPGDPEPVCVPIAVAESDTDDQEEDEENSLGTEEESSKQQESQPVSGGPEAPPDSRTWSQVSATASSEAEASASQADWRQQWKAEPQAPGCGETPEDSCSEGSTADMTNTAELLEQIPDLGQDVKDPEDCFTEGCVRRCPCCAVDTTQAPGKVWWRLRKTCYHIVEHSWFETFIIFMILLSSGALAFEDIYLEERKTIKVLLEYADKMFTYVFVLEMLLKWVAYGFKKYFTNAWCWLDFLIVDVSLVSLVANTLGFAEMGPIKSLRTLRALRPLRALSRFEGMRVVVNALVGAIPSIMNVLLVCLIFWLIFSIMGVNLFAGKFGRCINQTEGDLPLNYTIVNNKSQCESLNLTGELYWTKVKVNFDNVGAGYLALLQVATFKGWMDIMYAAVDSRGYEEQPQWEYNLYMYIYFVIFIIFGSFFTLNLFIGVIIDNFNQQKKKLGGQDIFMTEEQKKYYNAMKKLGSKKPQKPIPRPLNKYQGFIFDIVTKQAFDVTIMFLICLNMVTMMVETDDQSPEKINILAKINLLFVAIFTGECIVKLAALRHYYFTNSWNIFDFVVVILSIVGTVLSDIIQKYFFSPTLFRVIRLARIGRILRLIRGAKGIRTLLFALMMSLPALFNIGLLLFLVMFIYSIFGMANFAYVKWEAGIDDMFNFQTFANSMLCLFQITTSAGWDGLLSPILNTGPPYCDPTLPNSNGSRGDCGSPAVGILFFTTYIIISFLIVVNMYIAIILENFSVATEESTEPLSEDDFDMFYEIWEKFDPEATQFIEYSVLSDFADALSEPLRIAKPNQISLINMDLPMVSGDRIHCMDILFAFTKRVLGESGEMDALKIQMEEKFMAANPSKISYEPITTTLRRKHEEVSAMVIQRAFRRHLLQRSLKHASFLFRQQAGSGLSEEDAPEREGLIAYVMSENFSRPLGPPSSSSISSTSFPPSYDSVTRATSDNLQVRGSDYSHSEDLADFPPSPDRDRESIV

[6] = Oral bioavailability in dog; format: ADME, organism-based, Canis lupus familiaris; settings: in vivo
[7] = molecular target: T1, Sodium channel protein type 5 subunit alpha; experiment: Inhibition of 3 Hz stimulated Nav1.5 (unknown origin) assessed as inhibition of peak sodium current by manual patch clamp method
[8] = Terminal half life in monkey; format: ADME, organism-based, Macaca mulatta; settings: rhesus monkey, in vivo; read-out: beta t1/2 (converted)
[9] = species on record: Oryctolagus cuniculus; experiment: Inhibition of Nav1.5 in isolated rabbit heart assessed as inhibition of ATX2-induced prolongation of mean action potential duration at 10 to 100000 nM relative to control
[10] = Ratio of drug level in brain to plasma in rat; format: ADME, cell-free; settings: read-out: BPR
[11] = Clearance in rat microsomes; format: ADME, Microsome
[12] = Plasma protein binding in rabbit; format: ADME, cell-free, Oryctolagus cuniculus; settings: read-out: PPB (converted)
[13] = molecular target: T2, Sodium channel protein type 2 subunit alpha (Homo sapiens, UniProt Q99250); experiment: Inhibition of 10 Hz stimulated Nav1.2 (unknown origin) by manual patch clamp method
[14] = molecular target: T2, Sodium channel protein type 2 subunit alpha; experiment: Inhibition of 1 Hz stimulated Nav1.2 (unknown origin) by manual patch clamp method
[15] = species on record: Rattus norvegicus; experiment: Toxicity in rat assessed as liver lesions after 7 days; format: organism-based; settings: in vivo, 168 h
[16] = Plasma protein binding in dog; format: ADME, cell-free, Canis lupus familiaris; settings: read-out: PPB (converted)
[17] = Clearance in dog; format: ADME, organism-based, Canis lupus familiaris; settings: in vivo
[18] = Ratio of drug level in brain to plasma in dog; format: ADME, cell-free, Canis lupus familiaris; settings: read-out: BPR
[19] = Half life in dog microsomes; format: ADME, Canis lupus familiaris, Microsome
[20] = Inhibition of Nav1.5 in isolated rabbit heart assessed as inhibition of ATX2-induced prolongation of mean action potential duration; settings: Oryctolagus cuniculus
[21] = Half life in human microsomes; format: ADME, Microsome
[22] = Clearance in dog microsomes; format: ADME, Canis lupus familiaris, Microsome
[23] = Clearance in rat; format: ADME, organism-based; settings: in vivo
[24] = Clearance in cynomolgus monkey; format: ADME, organism-based, Macaca fascicularis; settings: in vivo
[25] = Volume of distribution in rabbit; format: ADME, organism-based, Oryctolagus cuniculus; settings: in vivo
[26] = Volume of distribution in rat; format: ADME, organism-based; settings: in vivo
[27] = molecular target: T1, Sodium channel protein type 5 subunit alpha; experiment: Inhibition of 1 Hz stimulated Nav1.5 (unknown origin) assessed as inhibition of peak sodium current by manual patch clamp method
[28] = molecular target: T3, Sodium channel protein type 1 subunit alpha (Homo sapiens, UniProt P35498); experiment: Inhibition of 10 Hz stimulated Nav1.1 (unknown origin) by manual patch clamp method
[29] = molecular target: T1, Sodium channel protein type 5 subunit alpha; settings: HEK293, human, read-out: INH
Description: Inhibition of 0.1 Hz stimulated human Nav1.5alpha expressed in HEK293 cells assessed as inhibition of late sodium current at 10 uM with 3 compound additions for 7 to 8 mins at holding potential -120 mV in presence of late sodium current activator tefluthrin/ATX2 measured immediately after third compound addition by PatchXpress method relative to control

[30] = Terminal half life in rat; format: ADME, organism-based; settings: in vivo, read-out: beta t1/2 (converted)
[31] = Half life in rat microsomes; format: ADME, Microsome
[32] = molecular target: T3, Sodium channel protein type 1 subunit alpha; experiment: Inhibition of 1 Hz stimulated Nav1.1 (unknown origin) by manual patch clamp method
[33] = Clearance in human microsomes; format: ADME, Microsome
[34] = Clearance in cynomolgus monkey microsomes; format: ADME, Macaca fascicularis, Microsome
[35] = Plasma protein binding in human; format: ADME, cell-free; settings: read-out: PPB (converted)
[36] = Volume of distribution in cynomolgus monkey; format: ADME, organism-based, Macaca fascicularis; settings: in vivo
[37] = molecular target: Voltage-gated inwardly rectifying potassium channel KCNH2 (Homo sapiens, UniProt Q12809); experiment: Inhibition of human ERG
[38] = Terminal half life in dog; format: ADME, organism-based, Canis lupus familiaris; settings: in vivo, read-out: beta t1/2 (converted)
[39] = molecular target: T3, Sodium channel protein type 1 subunit alpha; experiment: Inhibition of 10 Hz stimulated Nav1.1 (unknown origin) assessed as inhibition of peak sodium current at 10 uM by automated patch clamp method relative to control
[40] = system: Heart; experiment: Protection against […]/clofilium-induced ventricular arrhythmias in isolated rabbit heart assessed as inhibition of torsade des pointes at 3 uM; format: functional, tissue-based; settings: Oryctolagus cuniculus, Cardiac ventricle
[41] = molecular target: T4, Nav1.5 (peak sodium current, use-dependent block) (Homo sapiens, UniProt Q14524); experiment: (§2) Inhibition of 3 Hz stimulated human Nav1.5alpha expressed in HEK293 cells assessed as use dependent block of peak sodium current at 10 uM with 3 compound additions at 60 sec intervals at holding potential -100 mV incubated for 320 sec after third compound addition followed by second period of 3 Hz stimulation by PatchXpress method relative to control; format: cell-based; settings: HEK293 cells expressing human Nav1.5alpha
T4 sequence (Q14524 whole entry): as above

[42] = molecular target: T1, Sodium channel protein type 5 subunit alpha; experiment: Inhibition of Nav1.5 (unknown origin) assessed as inhibition of late sodium current by manual patch clamp method
[43] = molecular target: T1, Sodium channel protein type 5 subunit alpha; experiment: as §1, with “current” for “current at 1 uM”, “method” for “method relative to control”; format: cell-based
[44] = Volume of distribution in dog; format: ADME, organism-based, Canis lupus familiaris; settings: in vivo
[45] = molecular target: T4, Nav1.5 (peak sodium current, use-dependent block); experiment: as §2, with “at 1” for “at 10”; format: cell-based; settings: HEK293 cells expressing human Nav1.5alpha
[46] = Lipophilicity, log D of compound; format: physicochemical; settings: octanol/water
[47] = molecular target: T4, Nav1.5 (peak sodium current, use-dependent block); experiment: as §2, with “at 0.3” for “at 10”; format: cell-based; settings: HEK293 cells expressing human Nav1.5alpha
[48] = system: Heart; experiment: Protection against […]/clofilium-induced ventricular arrhythmias in isolated rabbit heart assessed as torsade des pointes at 14 uM relative to control; format: functional, Oryctolagus cuniculus, Cardiac ventricle

SMILES: Cc1cc(Cn2nc3ccc(-c4ccc(OC(F)(F)F)cc4)cn3c2=O)on1
IC50 [43]: > 10 µM

SMILES: COc1ccccc1OCC(O)CN1CCN(CC(=O)Nc2c(C)cccc2C)CC1 (stereo not drawn) [RANOLAZINE]
inhibition [9]: 60%
Activity [48]: 40%

SMILES: CCc1noc(Cn2nc3ccc(-c4ccc(OC(F)(F)F)cc4)cn3c2=O)n1
inhibition at 10 µM [29]: ≥ 70%
IC50 [43]: 4 µM

SMILES: O=c1n(Cc2nc(C3CC3)co2)nc2ccc(-c3ccc(OC(F)(F)F)cc3)cn12
half-life [19]: 1.8 h
half-life [21]: 0.65 h
inhibition at 10 µM [29]: ≥ 70%
half-life [31]: 0.65 h
IC50 [43]: 3 µM

Further lines, with some results ahead:

bioavailability [1]: 44.3%
half-life [2]: 4.81 h
fraction unbound [3]: 0.046
clearance [4]: 7.03 mL/min/kg
bioavailability [6]: 72.8%
half-life [8]: 4.78 h
Kp [10]: > 20
CL [11]: 8.67 mL/min/kg
fraction unbound [12]: 0.043
IC50 [13]: 8.1 µM
IC50 [14]: 4.2 µM
fraction unbound [16]: 0.057
clearance [17]: 7.98 mL/min/kg
Kp [18]: > 20
half-life [19]: 3.93 h
half-life [21]: 5.13 h
CL [22]: 4.33 mL/min/kg
clearance [23]: 12 mL/min/kg
clearance [24]: 7.97 mL/min/kg
Vd [25]: 2.24 L/kg
Vd [26]: 1.95 L/kg
IC50 [28]: 4.8 µM
half-life [30]: 2.1 h
half-life [31]: 3.3 h
IC50 [32]: > 10 µM
CL [33]: 3.5 mL/min/kg
CL [34]: 6.7 mL/min/kg
fraction unbound [35]: 0.05
Vd [36]: 2.29 L/kg
half-life [38]: 17.3 h
inhibition [39]: 8%
Vd [44]: 4.23 L/kg
SMILES: Cc1noc(Cn2nc3ccc(-c4ccc(OC(F)(F)F)cc4)cn3c2=O)n1
inhibition at 1 µM [5]: 31%
IC50 [7]: > 10 µM
inhibition [9]: 90%
Activity [15]: Toxic
IC50 [20]: 1.2 µM
IC50 [27]: > 10 µM
inhibition at 10 µM [29]: ≥ 70%
IC50 [37]: > 10 µM
inhibition [40]: Active
inhibition at 320 s, 10 µM [41]: 10%
IC50 [42]: 1.33 µM
IC50 [43]: 1.9 µM

half-life [19]: 2.78 h
half-life [21]: 3.45 h
half-life [31]: 2.42 h
inhibition [39]: 65%
SMILES: Cc1nc(Cn2nc3ccc(-c4ccc(Oc5ccc(F)cc5)cc4)cn3c2=O)no1
inhibition at 320 s, 1 µM [45]: 46%
inhibition at 10 µM [29]: ≥ 70%
IC50 [43]: 541 µM

logD [46]: 2.8
half-life [19]: 3.02 h
half-life [21]: 1.35 h
half-life [31]: 0.533 h
inhibition [39]: 56%
SMILES: O=c1n(Cc2noc(CO)n2)nc2ccc(-c3ccc(Oc4ccc(F)cc4)cc3)cn12
inhibition at 10 µM [29]: ≥ 70%
inhibition at 320 s, 10 µM [41]: 21%
IC50 [43]: 981 µM

logD [46]: 3
half-life [19]: 3.62 h
half-life [21]: 2.12 h
half-life [31]: 1.42 h
SMILES: Cc1noc(Cn2nc3ccc(-c4ccc(Oc5ccc(F)cc5)cc4)cn3c2=O)n1
inhibition at 320 s, 0.3 µM [47]: 33%
inhibition at 10 µM [29]: ≥ 70%
IC50 [43]: 215 µM

half-life [21]: 6.58 h
half-life [31]: 6.05 h
inhibition [39]: 27%
SMILES: Cc1nc(Cn2nc3ccc(-c4ccc(OC(F)(F)F)cc4)cn3c2=O)no1
inhibition at 10 µM [29]: ≥ 70%
inhibition at 320 s, 10 µM [41]: 10%
IC50 [43]: 3.3 µM

half-life [19]: 2.67 h
half-life [21]: 2.4 h
half-life [31]: 0.683 h
inhibition [39]: 28%
SMILES: Cc1coc(Cn2nc3ccc(-c4ccc(OC(F)(F)F)cc4)cn3c2=O)n1
inhibition at 10 µM [29]: ≥ 70%
IC50 [43]: 2.5 µM
